Tests used:
Experiment in all cases: Test E pre-/postemergence greenhouse herbicide test
Assay type in all cases: in vivo
[1] = tested on: beggarticks (hairy beggarticks, Bidens pilosa); details: scale 0 to 100
In short: (§1)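 Formulated test chemical (solvent mixture with surfactant) is applied preemergence to seeded silt loam and postemergence to plants at 1- to 4-leaf stage grown in peat-based medium. Greenhouse holding 14 to 21 d; response scored visually, 0 no effect to 100 complete control.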

corn (Zea mays) = details: scale 0 to 100
In short: as §1

[2] = tested on: crabgrass, Brazil (Brazilian crabgrass, Digitaria horizontalis); details: scale 0 to 100
In short: as §1

[3] = tested on: foxtail, giant (giant foxtail, Setaria faberii); details: Preemergence, scale 0 to 100
In short: as §1

[4] = tested on: foxtail, green (green foxtail, Setaria viridis); details: Preemergence, scale 0 to 100
In short: as §1

[5] = tested on: johnsongrass (Sorghum halepense); details: Preemergence, scale 0 to 100
In short: as §1

kochia (Kochia scoparia) = details: Preemergence, scale 0 to 100
In short: as §1

[6] = tested on: lambsquarters (Chenopodium album); details: Preemergence, scale 0 to 100
In short: as §1

[7] = tested on: morningglory (Ipomoea coccinea); details: Preemergence, scale 0 to 100
In short: as §1

[8] = tested on: panicum, fall (fall panicum, Panicum dichotomiflorum); details: scale 0 to 100
In short: as §1

[9] = tested on: pigweed, palmer (palmer pigweed, Amaranthus palmeri); details: scale 0 to 100
In short: as §1

[10] = tested on: ragweed (common ragweed, Ambrosia elatior); details: Preemergence, scale 0 to 100
In short: as §1

[11] = tested on: ryegrass, Italian (Italian ryegrass, Lolium multiflorum); details: scale 0 to 100
In short: as §1

soybean (Glycine max) = details: scale 0 to 100
In short: as §1

[12] = tested on: velvetleaf (Abutilon theophrasti); details: Preemergence, scale 0 to 100
In short: as §1

[13] = tested on: waterhemp (common waterhemp, Amaranthus rudis); details: scale 0 to 100
In short: as §1

COc1cc(=O)n(-c2ccc(F)cc2)nc1Cc1ccnc(C(F)(F)F)c1 [Compound 17, 2-(4-fluorophenyl)-5-methoxy-6-[[2-(trifluoromethyl)-4-pyridinyl]methyl]-3 (2H)-pyridazinone]
75: Plant response rating: Foxtail, Green ([4]; 62 g ai/ha) | Plant response rating: Foxtail, Green ([4]; 125 g ai/ha) | Plant response rating: Johnsongrass ([5]; 125 g ai/ha) | Plant response rating: Ryegrass, Italian ([11]; Preemergence, 250 g ai/ha) | Plant response rating: Waterhemp ([13]; Preemergence, 16 g ai/ha)
30: Plant response rating: Beggarticks ([1]; Postemergence, 31 g ai/ha) | Plant response rating: Beggarticks ([1]; Postemergence, 62 g ai/ha) | Plant response rating: Corn (corn (Zea mays); Preemergence, 62 g ai/ha) | Plant response rating: Crabgrass, Brazil ([2]; Postemergence, 125 g ai/ha) | Plant response rating: Panicum, Fall ([8]; Postemergence, 125 g ai/ha) | Plant response rating: Pigweed, Palmer ([9]; Postemergence, 62 g ai/ha) | Plant response rating: Soybean (soybean (Glycine max); Postemergence, 16 g ai/ha) | Plant response rating: Soybean (soybean (Glycine max); Postemergence, 31 g ai/ha)
80: Plant response rating: Corn (corn (Zea mays); Preemergence, 250 g ai/ha) | Plant response rating: Panicum, Fall ([8]; Preemergence, 16 g ai/ha) | Plant response rating: Pigweed, Palmer ([9]; Postemergence, 125 g ai/ha) | Plant response rating: Pigweed, Palmer ([9]; Preemergence, 125 g ai/ha) | Plant response rating: Ragweed ([10]; 250 g ai/ha) | Plant response rating: Soybean (soybean (Glycine max); Preemergence, 250 g ai/ha) | Plant response rating: Waterhemp ([13]; Postemergence, 62 g ai/ha)
20: Plant response rating: Beggarticks ([1]; Postemergence, 16 g ai/ha) | Plant response rating: Beggarticks ([1]; Preemergence, 250 g ai/ha) | Plant response rating: Crabgrass, Brazil ([2]; Postemergence, 16 g ai/ha) | Plant response rating: Crabgrass, Brazil ([2]; Postemergence, 31 g ai/ha) | Plant response rating: Crabgrass, Brazil ([2]; Postemergence, 62 g ai/ha) | Plant response rating: Panicum, Fall ([8]; Postemergence, 31 g ai/ha) | Plant response rating: Panicum, Fall ([8]; Postemergence, 62 g ai/ha) | Plant response rating: Pigweed, Palmer ([9]; Postemergence, 16 g ai/ha) | Plant response rating: Pigweed, Palmer ([9]; Postemergence, 31 g ai/ha) | Plant response rating: Ryegrass, Italian ([11]; Preemergence, 16 g ai/ha) | Plant response rating: Velvetleaf ([12]; 62 g ai/ha)
60: Plant response rating: Morningglory ([7]; 62 g ai/ha) | Plant response rating: Soybean (soybean (Glycine max); Postemergence, 125 g ai/ha)
85: Plant response rating: Soybean (soybean (Glycine max); Postemergence, 250 g ai/ha) | Plant response rating: Waterhemp ([13]; Postemergence, 125 g ai/ha)
40: Plant response rating: Foxtail, Giant ([3]; 31 g ai/ha) | Plant response rating: Waterhemp ([13]; Postemergence, 16 g ai/ha)
10: Plant response rating: Corn (corn (Zea mays); Postemergence, 31 g ai/ha) | Plant response rating: Corn (corn (Zea mays); Postemergence, 62 g ai/ha) | Plant response rating: Johnsongrass ([5]; 31 g ai/ha) | Plant response rating: Ragweed ([10]; 62 g ai/ha)
15: Plant response rating: Panicum, Fall ([8]; Postemergence, 16 g ai/ha) | Plant response rating: Ryegrass, Italian ([11]; Postemergence, 250 g ai/ha)
50: Plant response rating: Foxtail, Green ([4]; 31 g ai/ha) | Plant response rating: Panicum, Fall ([8]; Postemergence, 250 g ai/ha) | Plant response rating: Ryegrass, Italian ([11]; Preemergence, 125 g ai/ha) | Plant response rating: Soybean (soybean (Glycine max); Postemergence, 62 g ai/ha) | Plant response rating: Waterhemp ([13]; Postemergence, 31 g ai/ha)
65: Plant response rating: Corn (corn (Zea mays); Postemergence, 250 g ai/ha) | Plant response rating: Corn (corn (Zea mays); Preemergence, 125 g ai/ha) | Plant response rating: Foxtail, Giant ([3]; 62 g ai/ha) | Plant response rating: Morningglory ([7]; 125 g ai/ha) | Plant response rating: Soybean (soybean (Glycine max); Preemergence, 125 g ai/ha)
98: Plant response rating: Kochia (kochia (Kochia scoparia); 125 g ai/ha) | Plant response rating: Kochia (kochia (Kochia scoparia); 250 g ai/ha) | Plant response rating: Lambsquarters ([6]; 16 g ai/ha) | Plant response rating: Lambsquarters ([6]; 31 g ai/ha) | Plant response rating: Lambsquarters ([6]; 62 g ai/ha) | Plant response rating: Lambsquarters ([6]; 125 g ai/ha) | Plant response rating: Panicum, Fall ([8]; Preemergence, 62 g ai/ha) | Plant response rating: Waterhemp ([13]; Preemergence, 31 g ai/ha) | Plant response rating: Waterhemp ([13]; Preemergence, 62 g ai/ha) | Plant response rating: Waterhemp ([13]; Preemergence, 125 g ai/ha) | Plant response rating: Waterhemp ([13]; Preemergence, 250 g ai/ha)
25: Plant response rating: Pigweed, Palmer ([9]; Preemergence, 62 g ai/ha) | Plant response rating: Ryegrass, Italian ([11]; Preemergence, 31 g ai/ha) | Plant response rating: Ryegrass, Italian ([11]; Preemergence, 62 g ai/ha) | Plant response rating: Velvetleaf ([12]; 125 g ai/ha)
70: Plant response rating: Crabgrass, Brazil ([2]; Postemergence, 250 g ai/ha) | Plant response rating: Kochia (kochia (Kochia scoparia); 16 g ai/ha) | Plant response rating: Morningglory ([7]; 250 g ai/ha) | Plant response rating: Velvetleaf ([12]; 250 g ai/ha)
95: Plant response rating: Kochia (kochia (Kochia scoparia); 62 g ai/ha) | Plant response rating: Waterhemp ([13]; Postemergence, 250 g ai/ha)
55: Plant response rating: Beggarticks ([1]; Postemergence, 250 g ai/ha)
90: Plant response rating: Johnsongrass ([5]; 250 g ai/ha) | Plant response rating: Kochia (kochia (Kochia scoparia); 31 g ai/ha) | Plant response rating: Panicum, Fall ([8]; Preemergence, 31 g ai/ha)
0: Plant response rating: Beggarticks ([1]; Preemergence, 16 g ai/ha) | Plant response rating: Beggarticks ([1]; Preemergence, 31 g ai/ha) | Plant response rating: Beggarticks ([1]; Preemergence, 62 g ai/ha) | Plant response rating: Corn (corn (Zea mays); Postemergence, 16 g ai/ha) | Plant response rating: Corn (corn (Zea mays); Preemergence, 16 g ai/ha) | Plant response rating: Corn (corn (Zea mays); Preemergence, 31 g ai/ha) | Plant response rating: Foxtail, Giant ([3]; 16 g ai/ha) | Plant response rating: Foxtail, Green ([4]; 16 g ai/ha) | Plant response rating: Johnsongrass ([5]; 16 g ai/ha) | Plant response rating: Morningglory ([7]; 16 g ai/ha) | Plant response rating: Pigweed, Palmer ([9]; Preemergence, 16 g ai/ha) | Plant response rating: Pigweed, Palmer ([9]; Preemergence, 31 g ai/ha) | Plant response rating: Ragweed ([10]; 16 g ai/ha) | Plant response rating: Ragweed ([10]; 31 g ai/ha) | Plant response rating: Ryegrass, Italian ([11]; Postemergence, 16 g ai/ha) | Plant response rating: Ryegrass, Italian ([11]; Postemergence, 31 g ai/ha) | Plant response rating: Ryegrass, Italian ([11]; Postemergence, 62 g ai/ha) | Plant response rating: Ryegrass, Italian ([11]; Postemergence, 125 g ai/ha) | Plant response rating: Soybean (soybean (Glycine max); Preemergence, 16 g ai/ha) | Plant response rating: Soybean (soybean (Glycine max); Preemergence, 31 g ai/ha) | Plant response rating: Soybean (soybean (Glycine max); Preemergence, 62 g ai/ha) | Plant response rating: Velvetleaf ([12]; 16 g ai/ha) | Plant response rating: Velvetleaf ([12]; 31 g ai/ha)
5: Plant response rating: Beggarticks ([1]; Preemergence, 125 g ai/ha)
35: Plant response rating: Beggarticks ([1]; Postemergence, 125 g ai/ha) | Plant response rating: Corn (corn (Zea mays); Postemergence, 125 g ai/ha) | Plant response rating: Johnsongrass ([5]; 62 g ai/ha) | Plant response rating: Morningglory ([7]; 31 g ai/ha) | Plant response rating: Ragweed ([10]; 125 g ai/ha)
100: Plant response rating: Crabgrass, Brazil ([2]; Preemergence, 16 g ai/ha) | Plant response rating: Crabgrass, Brazil ([2]; Preemergence, 31 g ai/ha) | Plant response rating: Crabgrass, Brazil ([2]; Preemergence, 62 g ai/ha) | Plant response rating: Crabgrass, Brazil ([2]; Preemergence, 125 g ai/ha) | Plant response rating: Crabgrass, Brazil ([2]; Preemergence, 250 g ai/ha) | Plant response rating: Foxtail, Giant ([3]; 125 g ai/ha) | Plant response rating: Foxtail, Giant ([3]; 250 g ai/ha) | Plant response rating: Foxtail, Green ([4]; 250 g ai/ha) | Plant response rating: Lambsquarters ([6]; 250 g ai/ha) | Plant response rating: Panicum, Fall ([8]; Preemergence, 125 g ai/ha) | Plant response rating: Panicum, Fall ([8]; Preemergence, 250 g ai/ha) | Plant response rating: Pigweed, Palmer ([9]; Postemergence, 250 g ai/ha) | Plant response rating: Pigweed, Palmer ([9]; Preemergence, 250 g ai/ha)

— US10202361B2, “Pyridazinones as herbicides” (E I DU PONT DE NEMOURS AND COMPANY, priority 2014, dated 2019)
